Data on 18 molecules can be found in patent publication US10138207B2, “Benzomorphan analogs and the use thereof” (priority 2012, dated 2018).

In test [1] the target is T1, κ opioid receptor (Homo sapiens, UniProt P41145). Nature of the test: κ-opioid receptor [35S]GTPγS functional assay, HEK-293 or CHO cells. The test is classed as biochemical. More on the design: expressed in transfected cells; host or cells: U-2 OS (in-house membranes). The note with it: for Emax: relative to U69,593. As to the method:
Membranes from recombinant HEK-293 cells, CHO or U-2 OS cells expressing the recombinant human κ opioid receptor (κ) were prepared by lysing cells in ice cold hypotonic buffer (2.5 mM MgCl2, 50 mM HEPES, pH 7.4) (10 mL/10 cm dish) followed by homogenization with a tissue grinder/Teflon pestle. Membranes from a cell line naturally expressing kappa opioid receptors can also be used. Membranes were collected by centrifugation at 30,000×g for 15 min at 4° C. and pellets were resuspended in hypotonic buffer to a final concentration of 1-3 mg/mL. Protein concentrations were determined using the BioRad protein assay reagent with bovine serum albumen as standard. Aliquots of κ receptor membranes were stored at −80° C.
Plates were incubated for 30 min at a temperature of about 25° C. with shaking.

Test [2] addresses T1, κ opioid receptor. Kind of test: biochemical. Type of test: binding. More on the design: expressed in transfected cells; host or cells: HEK 293 (in-house membrane prep). The note with it: HEK-293 or CHO cells.
Test [3] deals with T2, μ-opioid receptor (Homo sapiens, UniProt P35372). Kind of test: μ-opioid receptor [35S]GTPγS functional assay, U-2 OS cells. The test is classed as biochemical. More on the design: expressed in transfected cells; host or cells: U-2 OS. Conditions: U-2 OS cells; for EC50: read-out: GTPγS μ EC50; for Emax: relative to DAMGO, read-out: GTPγS μ Emax. A general note: GTPγS is a poorly hydrolysed GTP analogue; its binding reports G protein activation.
T2 sequence (P35372 whole entry, species assumed): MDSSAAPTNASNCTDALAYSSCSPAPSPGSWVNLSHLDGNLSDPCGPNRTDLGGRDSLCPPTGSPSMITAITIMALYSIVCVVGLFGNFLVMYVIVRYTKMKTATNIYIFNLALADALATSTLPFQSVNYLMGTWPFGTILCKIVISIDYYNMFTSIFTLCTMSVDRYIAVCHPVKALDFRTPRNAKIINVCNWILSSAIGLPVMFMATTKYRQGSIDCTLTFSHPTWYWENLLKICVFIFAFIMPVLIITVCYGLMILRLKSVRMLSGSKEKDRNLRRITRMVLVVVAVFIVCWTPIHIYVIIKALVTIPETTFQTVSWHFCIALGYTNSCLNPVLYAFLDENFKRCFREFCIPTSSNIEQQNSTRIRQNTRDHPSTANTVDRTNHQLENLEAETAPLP

Test [4] addresses T2, μ-opioid receptor. Nature of the test: μ-opioid receptor [35S]GTPγS functional assay, HEK-293 or CHO cells. Conditions: for Emax: read-out: GTPγS μ Emax.
Test [5] has as its target T1, κ opioid receptor. Nature of the test: κ-opioid receptor [35S]GTPγS functional assay, U-2 OS cells. Type of test: biochemical. More on the design: expressed in transfected cells; host or cells: U-2 OS (in-house membranes). Conditions: U-2 OS cells.
Procedure: Membranes from recombinant HEK-293 cells, CHO or U-2 OS cells expressing the recombinant human κ opioid receptor (κ) were prepared by lysing cells in ice cold hypotonic buffer (2.5 mM MgCl2, 50 mM HEPES, pH 7.4) (10 mL/10 cm dish) followed by homogenization with a tissue grinder/Teflon pestle. […] Membranes were collected by centrifugation at 30,000×g for 15 min at 4° C. and pellets were resuspended in hypotonic buffer to a final concentration of 1-3 mg/mL. Protein concentrations were determined using the BioRad protein assay reagent with bovine serum albumen as standard. Aliquots of κ receptor membranes were stored at −80° C.
Setting [6] is: HEK-293 or CHO cells, read-out: GTPγS κ EC50.
The mark [7] stands for this setting: HEK-293 or CHO cells, bound in μM, read-out: GTPγS κ EC50.

T1 sequence (P41145 whole entry): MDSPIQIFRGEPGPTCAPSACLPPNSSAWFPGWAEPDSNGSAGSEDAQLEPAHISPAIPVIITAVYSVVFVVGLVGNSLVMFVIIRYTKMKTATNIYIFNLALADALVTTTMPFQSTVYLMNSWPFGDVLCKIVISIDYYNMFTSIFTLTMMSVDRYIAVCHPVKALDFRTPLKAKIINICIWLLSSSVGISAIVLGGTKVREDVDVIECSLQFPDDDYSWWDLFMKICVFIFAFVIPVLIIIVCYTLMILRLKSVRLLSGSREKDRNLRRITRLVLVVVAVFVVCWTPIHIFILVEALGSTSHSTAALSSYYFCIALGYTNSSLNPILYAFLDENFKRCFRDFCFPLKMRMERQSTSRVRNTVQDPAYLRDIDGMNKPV

What is called EC50 is the midpoint of the concentration-response curve. The Emax is the maximal effect, on the per cent scale that the assay sets. Broadly, the Ki is the dissociation constant of the complex between target and ligand, obtained from inhibition or displacement. Consider `CN1CC[C@]2(C)c3cc(O)ccc3CC1C2N(C)C(=O)/C=C/c1ccoc1` (stereo in doubt) [Compound 24, (E)-3-(furan-3-yl)-N-((2R,6R,11S)-8-hydroxy-3,6-dimethyl-1,2,3,4,5,6-hexahydro-2,6-methanobenzo[d]azocin-11-yl)-N-methylacrylamide], for which the EC50 at κ opioid receptor [1] (setting [6]) turned out to be 0.178 ± 0.0251 µM. The Emax on κ opioid receptor [1] (HEK-293 or CHO cells) stood at 30.7 ± 2.6%. The molecule also gave a Ki on κ opioid receptor [2] of 1.17 ± 0.09 nM.
In the case of `CCN(C(=O)/C=C/c1ccoc1)C1C2Cc3ccc(OC)cc3[C@@]1(C)CCN2C` (stereo in doubt) [Compound 25, (E)-N-ethyl-3-(furan-3-yl)-N-((2R,6R,11S)-8-methoxy-3,6-dimethyl-1,2,3,4,5,6-hexahydro-2,6-methanobenzo[d]azocin-11-yl)acrylamide], the EC50 is 49.8 ± 12.1 nM on μ-opioid receptor [3] and greater than 20 µM at κ opioid receptor [1] (setting [7]). Moreover, the Emax at μ-opioid receptor [3] was 102 ± 1.67%; on κ opioid receptor [1] (HEK-293 or CHO cells) it was -1%. The molecule further gave a Ki on κ opioid receptor [2] of 147 ± 18.4 nM.
Consider `CN1CC[C@]2(C)c3cc(O)ccc3CC1C2N(C)C(=O)Cc1ccc(S(C)(=O)=O)cc1` (stereo in doubt) [Compound 27, N-((2R,6R,11S)-8-hydroxy-3,6-dimethyl-1,2,3,4,5,6-hexahydro-2,6-methanobenzo[d]azocin-11-yl)-N-methyl-2-(4-(methylsulfonyl)phenyl)acetamide], for which, on μ-opioid receptor [3], the EC50 is 1.51 ± 0.24 nM and the Emax worked out at 103 ± 2.33%. For the same molecule, on κ opioid receptor [1] (setting [7]), the EC50 is greater than 20 µM. Further, the Ki at κ opioid receptor [2] amounted to 35.2 ± 9.38 nM.
For the molecule `CN1CC[C@]2(C)c3cc(O)ccc3CC1C2N(C)CCc1ccccc1` (stereo in doubt) [Compound 29, (2R,6R,11S)-3,6-dimethyl-11-(methyl(phenethyl)amino)-1,2,3,4,5,6-hexahydro-2,6-methanobenzo[d]azocin-8-ol], the EC50 at μ-opioid receptor [3] is 0.044 nM; on κ opioid receptor [1] (setting [6]) it was 0.233 ± 0.0749 µM. Moreover, the Emax on μ-opioid receptor [3] turned out to be 100 ± 1.45%; on κ opioid receptor [1] (HEK-293 or CHO cells), 28.2 ± 4.66%. Besides, affinity on κ opioid receptor [2] was put at a Ki of 30.1 ± 11.8 nM.
As to `CN1CC[C@]2(C)c3cc(O)ccc3CC1C2N(C)c1ccc(CCS(N)(=O)=O)cc1` (stereo in doubt) [Compound 51, 2-(4-(((2R,6R,11S)-8-hydroxy-3,6-dimethyl-1,2,3,4,5,6-hexahydro-2,6-methanobenzo[d]azocin-11-yl)(methyl)amino)phenyl)ethanesulfonamide], the figures for the EC50 at μ-opioid receptor [3], on μ-opioid receptor [4] and on κ opioid receptor [1] (setting [7]) were 0.21 ± 0.021 nM, 1.44 ± 0.44 nM and greater than 20 µM, respectively. The Emax was found to be 113 ± 2.65% at μ-opioid receptor [3] and 100 ± 7.22% on μ-opioid receptor [4]. Further, the Ki on κ opioid receptor [2] is 7.83 ± 0.95 nM.
As to `CC(C)CC(NC(=O)N(C)C1[C@H]2Cc3ccc(O)cc3[C@]1(C)CCN2C)C(=O)O` (stereo in doubt) [Compound 76, 2-(3-((2R,6S,11S)-8-hydroxy-3,6-dimethyl-1,2,3,4,5,6-hexahydro-2,6-methanobenzo[d]azocin-11-yl)-3-methylureido)-4-methylpentanoic acid], the EC50 on μ-opioid receptor [4] was 811 ± 53 nM; on κ opioid receptor [1] (setting [7]) it was greater than 20 µM. The figures for the Emax on μ-opioid receptor [4] and on κ opioid receptor [1] (HEK-293 or CHO cells) were 79.3 ± 3.48% and -0.33 ± 0.67%, respectively. This molecule also showed a Ki on κ opioid receptor [2] of 107 ± 1.33 nM.
Consider `CN1CC[C@]2(C)c3cc(O)ccc3CC1C2N(C)C(=O)Nc1ccc(C#N)cc1` (stereo in doubt) [Compound 78, 3-(4-cyanophenyl)-1-((2R,6R,11S)-8-hydroxy-3,6-dimethyl-1,2,3,4,5,6-hexahydro-2,6-methanobenzo[d]azocin-11-yl)-1-methylurea], for which the EC50 was 6.09 ± 0.45 nM at μ-opioid receptor [3] and greater than 20 µM at κ opioid receptor [1] (setting [7]). Besides, the Emax on μ-opioid receptor [3] turned out to be 109 ± 3.28%. Affinity on κ opioid receptor [2] was put at a Ki of 17.9 ± 4.33 nM.
As to `COc1ccc2c(c1)C1(C)CCN(CCC(C(=O)N(C)C)(c3ccccc3)c3ccccc3)C(C2)C1(O)O` (stereo not shown) [Compound 7, 4-(11,11-dihydroxy-8-methoxy-6-methyl-1,2,5,6-tetrahydro-2,6-methanobenzo[d]azocin-3(4H)-yl)-N,N-dimethyl-2,2-diphenylbutanamide], the EC50 on κ opioid receptor [1] (setting [7]) is greater than 20 µM. Moreover, at κ opioid receptor [1] (HEK-293 or CHO cells), the Emax was -0.33 ± 0.67%. At κ opioid receptor [2], the affinity, expressed as Ki, was 279 ± 39.8 nM.
As for `COc1ccc2c(c1)[C@@]1(C)CCN(C)C(C2)[C@@H]1N(C)C(=O)/C=C/c1ccoc1` [Compound 16, (E)-3-(furan-3-yl)-N-((6R,11R)-8-methoxy-3,6-dimethyl-1,2,3,4,5,6-hexahydro-2,6-methanobenzo[d]azocin-11-yl)-N-methylacrylamide], on κ opioid receptor [1] (setting [6]), the EC50 worked out at 1.05 ± 0.262 µM. Moreover, the Emax on κ opioid receptor [1] (HEK-293 or CHO cells) was 15 ± 1.53%. The molecule also had a Ki on κ opioid receptor [2] of 186 ± 34 nM.
As for `COc1ccc2c(c1)[C@@]1(C)CCN(CCC(C(=O)N(C)C)(c3ccccc3)c3ccccc3)C(C2)[C@H]1O` [Compound 17, 4-((6R,11S)-11-hydroxy-8-methoxy-6-methyl-1,2,5,6-tetrahydro-2,6-methanobenzo[d]azocin-3(4H)-yl)-N,N-dimethyl-2,2-diphenylbutanamide], the EC50 at κ opioid receptor [1] (setting [7]) was greater than 20 µM. On κ opioid receptor [2], this molecule returned a Ki of 89.9 ± 14.7 nM.
For `CN(C)C(=O)C(CCN1CC[C@]2(C)c3cc(O)ccc3CC1[C@H]2O)(c1ccccc1)c1ccccc1` [Compound 22, 4-((6R,11S)-8,11-dihydroxy-6-methyl-1,2,5,6-tetrahydro-2,6-methanobenzo[d]azocin-3(4H)-yl)-N,N-dimethyl-2,2-diphenylbutanamide], on μ-opioid receptor [3], the EC50 was 300 ± 45.8 nM and the Emax was found to be 71 ± 3.46%. Besides, at κ opioid receptor [1] (setting [7]), the EC50 was greater than 20 µM. In addition, the affinity on κ opioid receptor [2], expressed as Ki, was 25.7 ± 8.74 nM.
For the molecule `CN1CC[C@]2(C)c3cc(O)ccc3CC1[C@@H]2COc1ncc([C@H](O)CO)cc1Cl` [Compound 43, (1S)-1-(5-chloro-6-(((6S,11R)-8-hydroxy-3,6-dimethyl-1,2,3,4,5,6-hexahydro-2,6-methanobenzo[d]azocin-11-yl)methoxy)pyridin-3-yl)ethane-1,2-diol], on μ-opioid receptor [4], the EC50 stood at 3390 ± 63.4 nM and the Emax was found to be 24.7 ± 3.28%. The EC50 on κ opioid receptor [1] was greater than 20 µM. The molecule further showed a Ki at κ opioid receptor [2] of 516 ± 126 nM.
Regarding `CN1CC[C@]2(C)c3cc(O)ccc3CC1[C@H]2COc1ccc(C(N)=O)cc1` [Compound 44, 4-(((6S,11S)-8-hydroxy-3,6-dimethyl-1,2,3,4,5,6-hexahydro-2,6-methanobenzo[d]azocin-11-yl)methoxy)benzamide], the EC50 at μ-opioid receptor [4] was found to be 718 ± 249 nM; at κ opioid receptor [1], 0.394 ± 0.0884 µM. The figures for the Emax on μ-opioid receptor [4] and at κ opioid receptor [1] (HEK-293 or CHO cells) were 65 ± 2.52% and 17.7 ± 1.2%, respectively. Further, the affinity at κ opioid receptor [2], expressed as Ki, was 166 ± 62.3 nM.
For `COc1ccc2c(c1)[C@@]1(C)CCN(C)C(C2)[C@@H]1c1cccc(C(N)=O)c1` [Compound 54, 3-((6S,11R)-8-methoxy-3,6-dimethyl-1,2,3,4,5,6-hexahydro-2,6-methanobenzo[d]azocin-11-yl)benzamide], the results for the EC50 on μ-opioid receptor [4] and at κ opioid receptor [1] (setting [7]) were greater than 20000 nM and greater than 20 µM, respectively. For the same molecule, the affinity at κ opioid receptor [2], expressed as Ki, was 259 ± 33.6 nM.
Consider `CN[C@@H]1[C@H]2Cc3ccc(OC)cc3[C@@]1(C)CCN2CC1CC1` [Compound 56, (2R,6R,11S)-3-(cyclopropylmethyl)-8-methoxy-N,6-dimethyl-1,2,3,4,5,6-hexahydro-2,6-methanobenzo[d]azocin-11-amine], for which the EC50 on μ-opioid receptor [4] came to 3810 ± 726 nM; at κ opioid receptor [1], 2.58 ± 0.721 µM. The Emax on μ-opioid receptor [4] worked out at 36.7 ± 7.22%; at κ opioid receptor [1] (HEK-293 or CHO cells) it was 25.7 ± 1.67%. This molecule showed an inhibition constant (Ki) at κ opioid receptor [2] of 170 ± 51.9 nM.
As to `COc1ccc2c(c1)[C@@]1(C)CCN(C)C(C2)[C@]1(O)c1cccc(C(N)=O)c1` [Compound 63, 3-((6R,11S)-11-hydroxy-8-methoxy-3,6-dimethyl-1,2,3,4,5,6-hexahydro-2,6-methanobenzo[d]azocin-11-yl)benzamide], the results for the EC50 on μ-opioid receptor [4] and at κ opioid receptor [1] (setting [7]) were greater than 20000 nM and greater than 20 µM, respectively. This molecule also had a Ki on κ opioid receptor [2] of 340 ± 90.9 nM.
In the case of `CN(C(=O)Nc1ccc(C#N)cc1)[C@@H]1C2Cc3ccc(O)cc3[C@@]1(C)CCN2CC1CC1` [Compound 81, 3-(4-cyanophenyl)-1-((6R,11S)-3-(cyclopropylmethyl)-8-hydroxy-6-methyl-1,2,3,4,5,6-hexahydro-2,6-methanobenzo[d]azocin-11-yl)-1-methylurea], at μ-opioid receptor [4], it took 1230 ± 173 nM to reach a half-maximal effect (EC50) and the Emax came out at 31.2 ± 2.87%. Also, the concentration for a half-maximal effect (EC50) on κ opioid receptor [1] (setting [7]) is greater than 20 µM. Moreover, the Ki at κ opioid receptor [2] was determined as 36.6 ± 4.94 nM.
In the case of `C[C@]12CCN(CC3CC3)[C@H](Cc3ccc(O)cc31)[C@H]2NS(=O)(=O)c1cccc(C(F)(F)F)c1` [Compound 128, N-((2R,6S,11S)-3-(cyclopropylmethyl)-8-hydroxy-6-methyl-1,2,3,4,5,6-hexahydro-2,6-methanobenzo[d]azocin-11-yl)-3-(trifluoromethyl)benzenesulfonamide], the EC50 on μ-opioid receptor [3] was 0.18 ± 0.069 nM; on μ-opioid receptor [4], 7.67 ± 0.79 nM; on κ opioid receptor [1] (setting [6]), 0.00035 ± 0.00015 µM; on κ opioid receptor [5] (read-out: GTPγS κ EC50), 0.74 ± 0.13 nM. Moreover, the Emax at μ-opioid receptor [3] is 47.8 ± 1.25%; on μ-opioid receptor [4], 53.5 ± 3.52%; at κ opioid receptor [1] (HEK-293 or CHO cells), 40.3 ± 2.19%; on κ opioid receptor [5] (relative to U69,593, read-out: GTPγS κ Emax) it was 90.7 ± 1.45%.
